Experiments:
[1] = system: Parkinson's disease model (6-OHDA model) mice; assay: Pole test (landing time); format: in vivo, C57BL/6 mice; conditions: 20 mg/kg orally once a day
Experimental: (§1) Specifically, 8-week-old C57BL/6 mice (Daehan Biolink, Eumseong, North Chungcheong Province, Korea) were anesthetized by intraperitoneal (i.p.) injection of 200 mg/kg of 2,2,2-tribromoethanol (Sigma-Aldrich), and they were placed in a stereotaxic apparatus (David Kopf Instruments, Tujunga, CA, USA) equipped With a mouse adapter. Using a Hamilton syringe (Hamilton, Bonaduz, Switzerland), 2 μL of 6-OHDA-HCl solution (2 mg/mL) (Sigma Aldrich) in 0.02% ascorbic acid was injected into the right striatum at the following stereotactic coordinates (mm from the bregma): IP+1.0; ML-1.8; DV −3.2. The skin was sutured, and the animal was removed from the stereotaxic apparatus and placed on a heating pad for 30 minutes. Normal control mice for the diseased mouse model were injected with a vehicle (0.02% ascorbic acid) instead of 6-OHDA-HCl solution.
(§2) Behavioral experiments were performed 18 days after 6-01-IDA injection, and mice were sacrificed 21 days after 6-01-IDA injection, and histological analysis was performed.
The mouse was placed on a bar with a diameter of 8 mm and a length of 55 cm, and a pole test was performed to measure the time it took for the mouse's four feet to come down to the floor (landing time).

[2] = system: TH-positive neurons; conditions: 6-OHDA+fexofenadine group; 20 mg/kg orally once a day; 21 days after 6-OHDA injection
Experimental: as §1, §2

[3] = system: GFAP; assay: GFAP staining in cortex, striatum and substantia nigra, α-synuclein injection model; format: in vivo, C57BL/6 mice; conditions: PFF-fexofenadine group vs PFF-PBS; 20 mg/kg orally once a day; day 30
Experimental: The skin was sutured, and the animal was removed from the stereotaxic apparatus and placed on a heating pad for 30 minutes.

[4] = system: Parkinson's disease model (6-OHDA model) mice; assay: Bridge test (acrossing time on a 1 m bar); format: in vivo, C57BL/6 mice; conditions: 20 mg/kg orally once a day
Experimental: as §1, §2
In order to test the animal model's sense of balance, a bridge test was performed to measure the time it took to pass from one side to the other side on a 1 m long bar (acrossing time).

[5] = system: Parkinson's disease model (6-OHDA model) mice; assay: Cylinder test; format: in vivo, C57BL/6 mice; conditions: 6-OHDA+fexofenadine group; 20 mg/kg orally once a day
Experimental: as §1, §2

[6] = system: BIFC-α-syn C. elegans Parkinson's disease model; assay: Pharyngeal pumping analysis; format: in vivo
Source text: (§3) For this purpose, A C. elegans Parkinson's disease model (Venus-αS) expressing BiFC-α-syn was produced by introducing plasmids that overexpress VN-linked α-synuclein in muscle cells of the pharynx and VC-linked α-synuclein in neurons that form synapses with muscle cells into wild-type Bristol N2 C. elegans purchased from the Caenorhabditis Genetics Center (CGC, University of Minnesota, St. Paul, MN) (Kim D-K et al., (2016). Autophagy. 12(10):1849-1863).

[7] = system: α-synuclein aggregates; assay: BiFC-α-syn Venus fluorescence in C. elegans Parkinson's disease model; format: in vivo; conditions: Venus-αS C. elegans; fexofenadine, 2 days at 20° C.; vs control not treated
Source text: as §3

[8] = system: BIFC-α-syn C. elegans Parkinson's disease model; assay: Life-span analysis; format: in vivo
Source text: as §3
For this purpose, eggs laid by adults were grown to the L4 larval stage on NGM plates inoculated with K col. OP50 (CGC) at 20° C. When the L4 stage was reached, they were transferred to NGM plates including […] 5-fluoro-2′-deoxyuridine (Sigma-Aldrich, F0503) to prevent progeny production. The number of living and dead C. elegans was recorded every 1 or 2 days. Worms that burst, were buried or crawled out of the plate were also counted. Survival data were analyzed using OASIS2 (Survival Analysis Online Application for Lifespan Analysis http://sbi.postech.ac.kr/oasis/surv/).

[9] = system: Iba-1 positive microglia; assay: Microglial (Iba-1) staining in substantia nigra and striatum, 6-OHDA model; format: in vivo, C57BL/6 mice; conditions: 6-OHDA+fexofenadine group; 20 mg/kg orally once a day; 21 days after 6-OHDA injection
Experimental: Specifically, 8-week-old C57BL/6 mice (Daehan Biolink, Eumseong, North Chungcheong Province, Korea) were anesthetized by intraperitoneal (i.p.) injection of 200 mg/kg of 2,2,2-tribromoethanol (Sigma-Aldrich), and they were placed in a stereotaxic apparatus (David Kopf Instruments, Tujunga, CA, USA) equipped With a mouse adapter.
Activated microglia were analyzed through staining with anti-Iba-1 antibody (Wako, 019-19741, 1:1,000 dilution). The brain tissue preparation and tissue staining method for this purpose were performed in the same manner as the TH staining method in Example 3-1, and the images were analyzed using an Axio scan. Z1 slide scanner (Carl Zeiss, Germany). The cell number was measured and analyzed as the average value of three sheets of each tissue.

[10] = 6-OHDA+fexofenadine group, 18 days after 6-OHDA injection
[11] = normal mice (PBS-fexofenadine group)
[12] = C. elegans wild-type N2 treated with fexofenadine

CC(C)(C(=O)O)c1ccc(C(O)CCCN2CCC(C(O)(c3ccccc3)c3ccccc3)CC2)cc1 (stereo not shown) [fexofenadine]
landing time [1, 10]: about 6 seconds
landing time [1, 11]: approximately 4.5 seconds
number of TH-positive neurons on the ipsilateral side of the substantia nigra [2]: recovered to a level similar to that of the normal mouse control group
GFAP expression in the cortex, striatum and substantia nigra, ipsilateral and contralateral sides [3]: significantly reduced
acrossing time [4, 10]: restored to a level similar to that of the normal mouse control group
acrossing time [4, 11]: improved compared to the normal mouse control group
motor ability (steps of forepaw opposite the damaged striatum vs undamaged) [5]: restored to the level of the normal mouse control group
pharyngeal pumping ability ([6]; C. elegans Parkinson's disease model, 8 days after fexofenadine treatment): restored to a level similar to that of wild-type N2
pharyngeal pumping ability [6, 12]: improves the pharyngeal pumping ability
Venus fluorescence intensity [7]: significantly reduced
lifespan [8, 12]: further extended
lifespan ([8]; fexofenadine-treated C. elegans Parkinson's disease model): about 14 days
number of Iba-1 positive microglia in the ipsilateral side of the striatum and substantia nigra [9]: reduced to a level similar to that of the normal mouse control group

Source: US20250213545A1 (AJOU UNIVERSITY INDUSTRY-ACADEMIC COOPERATION FOUNDATION, priority 2022, published 2025)
